Measured values published in PubChem BioAssay (NCI).
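Exposure lasted 48 hours, with cells grown in 96-well plates and compounds tested at five concentrations. TGI: concentration producing complete growth inhibition.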

What was measured:
Assay in all cases: NCI anticancer screen, dose series, 48 h
SK-MEL-2 melanoma = system: SK-MEL-2 melanoma
HOP-62 NSCLC = system: HOP-62 NSCLC
NCI-H522 lung = system: NCI-H522 lung
MOLT-4 leukemia = system: MOLT-4 leukemia
LOX IMVI melanoma = system: LOX IMVI melanoma
HT29 colon = system: HT29 colon
SK-MEL-5 melanoma = system: SK-MEL-5 melanoma
HOP-92 NSCLC = system: HOP-92 NSCLC
MDA-MB-435 = system: MDA-MB-435
NCI-H23 lung = system: NCI-H23 lung
EKVX NSCLC = system: EKVX NSCLC
UACC-257 melanoma = system: UACC-257 melanoma
T-47D breast = system: T-47D breast
SR leukemia = system: SR leukemia
OVCAR-8 ovarian = system: OVCAR-8 ovarian
HCT-15 colon = system: HCT-15 colon
UO-31 renal = system: UO-31 renal
DU-145 prostate = system: DU-145 prostate
OVCAR-5 ovarian = system: OVCAR-5 ovarian
K-562 leukemia = system: K-562 leukemia
BT-549 breast = system: BT-549 breast
HL-60(TB) leukemia = system: HL-60(TB) leukemia
SNB-75 CNS = system: SNB-75 CNS
SNB-19 CNS = system: SNB-19 CNS
SF-268 CNS = system: SF-268 CNS
RPMI-8226 leukemia = system: RPMI-8226 leukemia
COLO 205 colon = system: COLO 205 colon
MCF7 breast = system: MCF7 breast
TK-10 renal = system: TK-10 renal
ACHN renal = system: ACHN renal
HS 578T breast = system: HS 578T breast
SK-OV-3 ovarian = system: SK-OV-3 ovarian
NCI-H226 lung = system: NCI-H226 lung
RXF 393 renal = system: RXF 393 renal
NCI/ADR-RES ovarian = system: NCI/ADR-RES ovarian
OVCAR-4 ovarian = system: OVCAR-4 ovarian
U251 CNS = system: U251 CNS
HCC-2998 colon = system: HCC-2998 colon
SW-620 colon = system: SW-620 colon
786-0 renal = system: 786-0 renal
SK-MEL-28 melanoma = system: SK-MEL-28 melanoma
CCRF-CEM leukemia = system: CCRF-CEM leukemia
UACC-62 melanoma = system: UACC-62 melanoma
SN12C renal = system: SN12C renal
PC-3 prostate = system: PC-3 prostate
CAKI-1 renal = system: CAKI-1 renal
MALME-3M melanoma = system: MALME-3M melanoma
MDA-N = system: MDA-N
IGROV1 ovarian = system: IGROV1 ovarian
KM12 colon = system: KM12 colon
SF-539 CNS = system: SF-539 CNS
A549 NSCLC = system: A549 NSCLC
HCT-116 colon = system: HCT-116 colon
M14 melanoma = system: M14 melanoma
OVCAR-3 ovarian = system: OVCAR-3 ovarian
SF-295 CNS = system: SF-295 CNS
MDA-MB-231 breast = system: MDA-MB-231 breast
NCI-H460 lung = system: NCI-H460 lung
A498 renal = system: A498 renal

CCCNC(=O)Cn1c(C)cc2ccccc21
TGI (SK-MEL-2 melanoma): > 100 µM
TGI (HOP-62 NSCLC): > 100 µM
TGI (NCI-H522 lung): > 100 µM
TGI (MOLT-4 leukemia): > 100 µM
TGI (LOX IMVI melanoma): > 100 µM
TGI (HT29 colon): > 100 µM
TGI (SK-MEL-5 melanoma): > 100 µM
TGI (HOP-92 NSCLC): > 100 µM
TGI (MDA-MB-435): > 100 µM
TGI (NCI-H23 lung): > 100 µM
TGI (EKVX NSCLC): > 100 µM
TGI (UACC-257 melanoma): > 100 µM
TGI (T-47D breast): > 100 µM
TGI (SR leukemia): > 100 µM
TGI (OVCAR-8 ovarian): > 100 µM
TGI (HCT-15 colon): > 100 µM
TGI (UO-31 renal): > 100 µM
TGI (DU-145 prostate): > 100 µM
TGI (OVCAR-5 ovarian): > 100 µM
TGI (K-562 leukemia): > 100 µM
TGI (BT-549 breast): > 100 µM
TGI (HL-60(TB) leukemia): > 100 µM
TGI (SNB-75 CNS): > 100 µM
TGI (SNB-19 CNS): > 100 µM
TGI (SF-268 CNS): > 100 µM
TGI (RPMI-8226 leukemia): > 100 µM
TGI (COLO 205 colon): > 100 µM
TGI (MCF7 breast): > 100 µM
TGI (TK-10 renal): > 100 µM
TGI (ACHN renal): > 100 µM
TGI (HS 578T breast): > 100 µM
TGI (SK-OV-3 ovarian): > 100 µM
TGI (NCI-H226 lung): > 100 µM
TGI (RXF 393 renal): > 100 µM
TGI (NCI/ADR-RES ovarian): > 100 µM
TGI (OVCAR-4 ovarian): > 100 µM
TGI (U251 CNS): > 100 µM
TGI (HCC-2998 colon): > 100 µM
TGI (SW-620 colon): > 100 µM
TGI (786-0 renal): > 100 µM
TGI (SK-MEL-28 melanoma): > 100 µM
TGI (CCRF-CEM leukemia): > 100 µM
TGI (UACC-62 melanoma): > 100 µM
TGI (SN12C renal): > 100 µM
TGI (PC-3 prostate): > 100 µM
TGI (CAKI-1 renal): > 100 µM
TGI (MALME-3M melanoma): > 100 µM
TGI (MDA-N): > 100 µM
TGI (IGROV1 ovarian): > 100 µM
TGI (KM12 colon): > 100 µM
TGI (SF-539 CNS): > 100 µM
TGI (A549 NSCLC): > 100 µM
TGI (HCT-116 colon): > 100 µM
TGI (M14 melanoma): > 100 µM
TGI (OVCAR-3 ovarian): > 100 µM

CC(C)(O)CO/N=C1\C(c2c(O)[nH]c3ccccc23)=Nc2ccccc21
TGI (SK-MEL-2 melanoma): 3.2 µM
TGI (HOP-62 NSCLC): 16.4 µM
TGI (NCI-H522 lung): > 47.8 µM
TGI (MOLT-4 leukemia): > 43.1 µM
TGI (LOX IMVI melanoma): > 24.3 µM
TGI (HT29 colon): > 35 µM
TGI (SK-MEL-5 melanoma): 2.28 µM
TGI (HOP-92 NSCLC): > 91.6 µM
TGI (MDA-MB-435): > 42.3 µM
TGI (NCI-H23 lung): 12.7 µM
TGI (EKVX NSCLC): > 36.3 µM
TGI (UACC-257 melanoma): > 96.4 µM
TGI (SR leukemia): > 100 µM
TGI (OVCAR-8 ovarian): > 44.4 µM
TGI (HCT-15 colon): 30.7 µM
TGI (UO-31 renal): 5.09 µM
TGI (DU-145 prostate): > 22.2 µM
TGI (OVCAR-5 ovarian): 9.3 µM
TGI (K-562 leukemia): > 100 µM
TGI (BT-549 breast): 28.6 µM
TGI (HL-60(TB) leukemia): 3.1 µM
TGI (SNB-75 CNS): 9.72 µM
TGI (SNB-19 CNS): > 52.6 µM
TGI (SF-268 CNS): > 60 µM
TGI (RPMI-8226 leukemia): > 31.6 µM
TGI (COLO 205 colon): 2.29 µM
TGI (MCF7 breast): 7.16 µM
TGI (TK-10 renal): 8.68 µM
TGI (ACHN renal): 8.01 µM
TGI (SF-295 CNS): 18.4 µM
TGI (HS 578T breast): > 100 µM
TGI (SK-OV-3 ovarian): 2.05 µM
TGI (RXF 393 renal): 2.48 µM
TGI (NCI/ADR-RES ovarian): > 64.8 µM
TGI (OVCAR-4 ovarian): 21.9 µM
TGI (U251 CNS): > 68.4 µM
TGI (HCC-2998 colon): 3.27 µM
TGI (SW-620 colon): > 86.4 µM
TGI (786-0 renal): > 44.4 µM
TGI (SK-MEL-28 melanoma): > 46.2 µM
TGI (CCRF-CEM leukemia): 6.54 µM
TGI (MDA-MB-231 breast): > 75.7 µM
TGI (UACC-62 melanoma): 2.66 µM
TGI (SN12C renal): > 80.1 µM
TGI (PC-3 prostate): 12.4 µM
TGI (CAKI-1 renal): 2.32 µM
TGI (MALME-3M melanoma): > 60.6 µM
TGI (MDA-N): > 45 µM
TGI (IGROV1 ovarian): 13.9 µM
TGI (NCI-H460 lung): 9.71 µM
TGI (KM12 colon): 4.71 µM
TGI (SF-539 CNS): 10.2 µM
TGI (A549 NSCLC): 11.1 µM
TGI (HCT-116 colon): > 100 µM
TGI (M14 melanoma): > 43.3 µM
TGI (A498 renal): 3.63 µM
TGI (OVCAR-3 ovarian): 5.95 µM
